Measurements from a melting point compilation (Tetko et al.; mined from patent text by program, amines drawn as free bases though some values may be those of a salt).

Row | Compound | melting point [°C]
1 | CCCCCCCCCCCCCCOC(=O)CS(=O)(=O)Nc1c(C(C)C)cccc1C(C)C | 53 to 55
2 | CNC(=O)N(OC(=O)OC)c1ccc(Cl)c(Cl)c1 | 110
3 | Cc1ccc(Oc2ccc(S(=O)(=O)C[C@H]([C@H]3COC(C)(C)O3)N(O)C=O)cc2)cc1 | 156 to 158
4 | NC(=O)C1(CCCCCCCCCCCCC2(C(=O)O)CC2)CC1 | 117 to 118
5 | NC(=O)CCN1CCCCC1 | 105 to 107
6 | O=C(O)CC1Cc2ccc(O)cc2OC1=O (configuration not stated) | 174 to 175
7 | O=C(O)c1ccccc1Nc1ccc(CCc2ccc(N3CC[C@@H]4CCCC[C@H]4C3)cc2)cc1 | 203 to 206
8 | Cn1ccnc1-c1ccc(-c2cnc([C@H](Cc3ccccn3)N(C=O)c3cc4ccccc4[nH]3)n2C)cc1 | 218 to 222
9 | O=C(Cc1ccc(F)cc1)NC1CCN(Cc2ccc(Br)cc2)CC1 | 144
10 | COc1cc2c3c(n(CCCCO)c(=O)c2cc1OC)-c1cc2c(cc1C3=O)OCO2 | 304 to 308
11 | CC(C)(C)c1cc(S)cc(C(C)(C)C)c1 | 47 to 49
12 | CCOC(=O)CSc1nc(Cl)c(C)c(Cl)n1 | 66 to 70
13 | CS(=O)(=O)NC1CCC(NC(=O)Nc2ccc(C(F)(F)F)cc2)CC1 (configuration not stated) | 237 to 239
14 | O=c1[nH]c2ccccc2c2cc(C(O)c3ccccc3)nn12 (configuration not stated) | 231 to 233
15 | O=C(O)/C=C/C(=O)/C=C/c1ccc2c(c1)OCO2 | 170 to 173
16 | CC(C#CC1CC(Oc2ccc(C(F)(F)F)cc2)C1)N(O)C(N)=O (single isomer, unassigned; (+)) | 113 to 114
17 | O=C(CCC(CCC(=O)OCc1ccccc1)(CCC(=O)OCc1ccccc1)[N+](=O)[O-])OCc1ccccc1 | 95 to 96
18 | O=[N+]([O-])C(=CC(O)C(=C1NCCN1Cc1ccc(Cl)nc1)[N+](=O)[O-])C1=NCCN1Cc1ccc(Cl)nc1 (configuration not stated) | 157 to 162
19 | CC(C)(O)CC12C=CC=CC1C(=O)NC2=O (configuration not stated) | 104 to 105
20 | CN(C)c1ccc(C(=C2SCCCS2)c2ccccc2)cc1 | 172 to 174
21 | CNC(=O)SC(C(=O)O)c1ccccc1 (configuration not stated) | 128 to 129
22 | COc1cc(C(=O)Nc2c(C)cc3cn[nH]c3c2C(=O)NC2(C3CC3)CC2)n(-c2ncccc2Cl)n1 | 150 to 154
23 | O[C@H]1c2cc(OC(c3ccccc3)c3ccccc3)ccc2OC[C@H]1Oc1cccnc1 (relative stereo) | 169 to 170

Row | Compound | melting point [°C]
24 | CC(CN1CCCC1)N1c2ccccc2Sc2ccc(C(=O)NC3CCCC3)cc21 (racemic) | 132
25 | O=c1[nH]c2ccc3ccc(-n4cccc4CN4CCN(Cc5ccccc5)CC4)cc3c2[nH]c1=O | > 250
26 | COc1ccc(-c2ccnc3c(C(=O)c4cccs4)cnn23)cc1NC(=O)OC(C)C | 193 to 195
27 | CCCC(=O)OCC1OC(n2cnc3c(OC)nc(N)nc32)C(O)C1O (configuration not stated) | 105
28 | O=Cc1ccc(-c2ccc(-c3ccccc3)s2)s1 | 119 to 121
29 | COc1nc(N)c(Cl)cc1C(=O)CCC1CCN(CC(C)(C)O)CC1 | 108
30 | CCCCCCCCCCCCCCS(=O)(=O)N[C@H]1CCCNC(=O)C1 | 100 to 101
31 | C#C[C@]1(C)CCc2c(C)c(OC)c(C)c(C)c2O1 | 94 to 97
32 | O=C=NCCC(F)(F)C(F)(F)C(F)(F)C(F)(F)C(F)(F)C(F)(F)C(F)(F)C(F)(F)C(F)(F)C(F)(F)F | 70 to 71
33 | CC(=O)[C@@H]1CC[C@@H](C)C[C@H]1O | 46 to 46.5
34 | O=c1oc(-c2ccccc2)cc(O)c1C(CC1CC1)SC1CCCC1 (configuration not stated) | 75 to 80
35 | COc1cc(OC)cc(OCCCCCN2CCC(CNC(=O)c3cc(Cl)c(N)cc3OC)CC2)c1 | 112 to 113
36 | COc1ccc(-c2c[nH]cc2C#N)cc1OC | 212 to 214
37 | Cc1nc(Nc2ccc(Cl)cc2)sc1C(=O)c1sc(Nc2ccc(Cl)cc2)nc1C | 184 to 186
38 | CCCCCCCCCCc1ccc(COc2ccc(-c3ncc(CCCCCCCCC)cn3)cc2)cc1 | 105
39 | COc1ccc2c(-c3ccccc3F)csc2c1Cl | 136 to 137
40 | O=C(O)c1ccc(-c2ccc(C(=O)O)cc2-c2nc3ccccc3[nH]2)c(-c2nc3ccccc3[nH]2)c1 | > 400
41 | COc1cc2c(cc1Nc1ncc(Cl)c(Nc3ccc(N(C)C)cc3OC)n1)CCN(CC(=O)N(C)C)CC2 | 69 to 83
42 | CCOC(=O)C1=C(c2ccc(-n3c(C)nc4cnccc43)cc2)NC(C)=C(C(=O)Nc2ccccn2)C1c1ccccc1Cl (configuration not stated) | 226 to 228
43 | COCC(C)Oc1cc(-n2c(=O)cc(C(F)(F)F)n(C)c2=O)c(F)cc1Cl (configuration not stated) | 80 to 82
44 | COc1ccc(-c2cc(C(C)(C)C)sc2-c2ccc(OC)cc2)cc1 | 112 to 115
45 | C(C#Cc1c2ccccc2cc2ccccc12)#Cc1c2ccccc2cc2ccccc12 | 280 to 282

Results, then the compound that gave them:

Row | melting point [°C] | Compound
46 | 179 to 180 | CCOP(=O)(Cc1ccc(NC(=O)c2sc(SC)c3c2CCc2sc(CC)nc2-3)cc1)OCC
47 | 179 to 180 | Cc1cc2c(C)c(O)c(O)c(C(=O)O)c2cc1Cc1ccccc1
48 | 69 to 70 | C=CCOc1ccc(C[C@H](NC(C)=O)C(=O)OCC)cc1
49 | 138 to 139 | Cc1c(Cc2ccc(C(C)C)cc2)c2c(c(C)c1NC(=O)CC(C)(C)C)C(N(C)C)C(C)(C)O2 (configuration not stated)
50 | 226 to 228 | Brc1ccc2nc(-c3ccc4ccccc4c3)cn2c1
51 | 92 to 93 | O=C(NCc1ccc([N+](=O)[O-])cc1)OCc1ccccc1
52 | 55 to 60 | CCOC(=O)c1cnc2c(cnn2CC)c1Cl
53 | 170 | Cc1ccc(CN2CCN([C@@H](CNS(=O)(=O)c3ccc(OCc4cc(C)nc5ccccc45)cc3)C(=O)NO)CC2)cc1
54 | 155 to 156 | O=[N+]([O-])c1cccc2nn(-c3ccccc3)nc12
55 | 298 to 302 | CCOC(=O)c1cc2c(cn1)[nH]c1cccc(C=Nc3ccccc3)c12
56 | 299 to 300 | CC(=O)Nc1ccc(-c2ccc3nc(-c4cccnc4N)n(-c4ccc(CNC(=O)c5ccccc5)cc4)c3n2)cc1
57 | 168 to 169 | C(=C\c1nc2ccccc2s1)/c1cccc(NCCCc2nnn[nH]2)c1
58 | 294 to 296 | Cc1nc2c(N)nc3ccccc3c2n1Cc1cc(-c2ccc(F)cc2)no1
59 | 160 to 162 | CCOC(=O)CCc1ccc(C(C)(C)C)c(NC(=O)CC2c3ccccc3Oc3ccccc32)c1
60 | 126 to 128 | CCCc1nn(C)c2c(Oc3ccc(F)cc3)nc(-c3ccccc3)nc12
61 | 81 to 83 | CCCCCc1c(C(C)C)nc(C(C)C)c(CCO)c1-c1ccc(F)cc1
62 | 125 to 127 | COc1ccc(S(=O)(=O)n2ccc3ccnc(Nc4ccc(F)cc4)c32)cc1
63 | 207 to 208 | CC(=O)OCC1Cc2c(c3cccnc3n(-c3ccccc3)c2=O)O1 (configuration not stated)
64 | 133 to 136 | CCOC(=O)C(=O)Nc1cccc(N)c1C#N
65 | 50 to 51 | CCCc1cc2cc(O)c(Cl)c(Cl)c2s1
66 | 144 to 146 | CON(c1ccc([N+](=O)[O-])cc1C#N)S(=O)(=O)c1ccc(Cl)s1
67 | 210 | Cc1cccc(N2CCN(c3ccc(=O)[nH]n3)CC2)c1
68 | 175 to 177 | Cc1cc(-n2ccc(OCC3CC3)cc2=O)sc1C(=O)NCc1ccccc1
69 | 170 to 172 | CC(=O)c1cc([N+](=O)[O-])c(N)c2c1CCCC2
70 | 148 to 150 | CCN(CC)C(=O)Nc1ccc(S(=O)(=O)Cl)cc1
71 | 106 to 107 | Cc1cc(C)n(C)c1C(=O)C(C#N)C(=O)Nc1ccccc1 (configuration not stated)

Row | melting point [°C] | Compound
72 | 115 to 117 | CCCCCS(=O)(=O)NC(=O)CCc1cc(C(C)C)nn1Cc1ccc(Cl)cc1Cl
73 | 126 to 128 | CCc1cccc(C)c1CNc1nc(Br)cc(N)c1[N+](=O)[O-]
74 | 97 to 99 | COc1ccc2c(c1)OCN(CCO[N+](=O)[O-])C2=O
75 | 115 to 125 | CCOC(=O)CNC(=O)Nc1ccc(S(=O)(=O)Nc2onc(C)c2C)cc1
76 | 44 to 46 | CC[Si](CC)(CC)c1cccc(-c2ccccc2)c1O
77 | 186 | COC(=O)c1cn(-c2ccnc3ccccc23)c2cc(F)ccc12
78 | 179 to 180 | Cc1cc(C)cc(S(=O)(=O)c2ccc([N+](=O)[O-])cc2)c1
79 | 225 to 228 | Cc1nc(N2CCN(Cc3ccc(C(F)(F)F)nc3)C2=O)sc1C(N)=O
80 | 105 to 108 | O=C(c1ccc2[nH]ccc2c1)N1CCN(CCc2ccccc2)CC1
81 | 175 to 177 | CNc1nc(-c2cccc(NC(=O)c3ccccn3)c2)c2cc(OC)c(OC)cc2n1
82 | 247 to 249 | CCOC(=O)c1cn(-c2ccc(F)cc2)c2cc(C#C[Si](C)(C)C)ccc2c1=O
83 | 129 | Nc1c(Br)cnn1-c1c(Cl)ccc(Cl)c1Cl
84 | 41 to 43 | CCOP(=O)(COS(=O)(=O)c1c(C)cccc1Cl)OCC
85 | 92 to 95 | COc1nc2cc(Cl)ccc2nc1Cl
86 | 208 to 210 | COc1cc2ncc(C#N)c(Nc3ccc(CCO)cc3)c2cc1OC
87 | 50 to 51 | CCOC(=O)c1cnn(-c2ccccn2)c1Cl
88 | 136 to 138 | COc1ccc(S(=O)(=O)Nc2onc(C)c2Br)cc1OC
89 | 99 to 100 | CC1=C(C)C(N)(Cc2ccccc2)C(C)C2=C1OCC2c1ccc(C)cc1 (configuration not stated)
90 | 131 to 132 | COc1cc(CCCC2SC(=O)NC2=O)ccc1OCc1coc(-c2ccccc2)n1 (configuration not stated)
91 | 185 | CCCCCCCC=C1SC(=S)N(N=c2sc3ccccc3s2)C1=O
92 | 159 to 162 | CCC(CC)c1ccc(-c2ccco2)c2nc(Oc3ccc(Cl)cc3Br)n(C)c12
93 | 125 to 126 | CCOC(=O)C1=NN(c2cccc(Cl)c2)C(c2ccccc2)CC1 (configuration not stated)
94 | 100 to 104 | CCCOc1c(OC)cc([N+](=O)[O-])c2ncccc12
95 | 155 to 158 | COc1cc(C(O)c2ccccc2S(=O)(=O)Nc2ccccc2C)cc2c1OCO2 (configuration not stated)
96 | 200 to 205 | Cc1c2n(c3ccccc13)C(=O)C(=Cc1ncn(S(=O)(=O)N(C)C)c1C)CC2
97 | 229 to 230 | CCCOc1ncc(C(C)=O)cc1-c1nc2c(CC)n(C3CN(C(C)=O)C3)nc2c(=O)[nH]1
